Source: paper PMC10180065, “Mechanistic Studies of Arene–Ruthenium(II) Complexes with Carbothioamidopyrazoles as Alternative Cancer Drugs” (Molecules, 2023)
Like-named read-outs stand apart in the source and are kept apart here.

Columns and labels:
[1] = tested on: HEC1A; experiment: MTT cytotoxicity, HEC1A; type: cell-based, human; details: 48 h incubation, read-out: Cytotoxic effect, IC50
Procedure: (§1) Cytotoxicity was evaluated against fifteen adherent human cancer cell lines using the MTT test: colorectal adenocarcinoma cells Caco2 (ATCC® HTB-37™), colorectal adenocarcinoma cells HT29 (ATCC® HTB-38™), colon colorectal carcinoma HCT116 (ATCC® CCL-247™), colon adenocarcinoma COLO205 (ATCC® CCL-222™), colorectal adenocarcinoma SW620 (ATCC® CCL-227™), colorectal adenocarcinoma grade IV LoVo (ATCC® CCL-229™), hepatocellular carcinoma Hep 3b (ATCC® HB-8064™), endometrium adenocarcinoma HEC1A (ATCC® HTB-112™), Ishikawa (99040201; Sigma–Aldrich Sigma, St. Louis, MO, USA), cervical adenocarcinoma cells HeLa (ATCC® CCL-2™), lung epithelial carcinoma A549 (ATCC® CRM-CCL-185™), breast epithelial adenocarcinoma cell positive for estrogen and progesterone receptors MCF7 (ATCC® HTB-22™) and negative for expression of estrogen receptor HCC38 (ATCC® CRL-2314™), acute promyelocytic leukemia HL-60 (ATCC® CCL-240™), skin melanoma WM115 (ATCC® CRL-1676™), and 1 suspension cancer cell line: acute lymphoblastic leukemia NALM6 (purchased from the German Collection of Microorganisms and Cell Cultures). HT29, NALM6, HCC-38 and HL-60 cells were cultured in RPMI 1640 medium (Thermo Fisher Scientific, Waltham, MA, USA) supplemented with 10% fetal bovine serum and antibiotic (gentamicin 25 μg ml^−1) (Gibco, Grand Island, New York, NY, USA). For the remaining tumor cell lines, Dulbecco’s minimal essential medium (DMEM, Lonza, Visp, Switzerland) supplemented with 10% fetal bovine serum and antibiotic instead of RPMI 1640 was used. In addition, Human Microvascular Endothelial Cells (HMEC1), which were obtained from the American Type Culture Collection (Manassas, VA, USA), were used as a model of normal cells. HMEC-1 were cultured in MCDB131 medium (Corning Life Sciences, Corning, NY, USA), supplemented with 10% fetal bovine serum, 10 ng/mL Epidermal Growth Factor (Millipore, Burlington, MA, USA) and 10 mM glutamine (Corning Life Sciences). All cells were grown at 37 °C in humidified atmosphere of 5% CO2 in air. The exponential growth of cells was maintained by regular passaging at 90% confluence three times a week using 0.025% trypsin/EDTA (Gibco, Grand Island, New York, NY, USA).
(§2) The cytotoxicity was tested by a standard MTT [3-(4,5-dimethylthiazol-2-yl)-2,5-diphenyltetrazolium bromide] (Sigma, St. Louis, MO, USA) microplate cell viability assay. The anticancer activity of the investigated compounds was evaluated in vitro on the basis of their ability to inhibit the proliferation of various cancer cells. Exponentially growing cells were seeded a day before the experiment into a 96-well microplate (Nunc, Roskilde, Denmark) at a density up to 6–8 × 10^3 cells/mL (depending on the cell line) and exposed to the test compounds at a wide range of concentrations for 48 h. Subsequently, various concentrations of the studied compounds (10^−7–10^−5 M) freshly prepared in DMSO (final concentration of <0.1% DMSO) and diluted with complete culture medium were added. After 48 h incubation, the cells were immediately subjected to a cell viability assay. At this time point, the number of viable cells in each well was estimated by the MTT test. Briefly, 50 µL (5 mg/mL final concentration) of MTT was added to each microplate well. This procedure was then followed by a three- to four-hour incubation at 37 °C. After incubation, MTT solution was replaced with 100 µL DMSO/well, which solubilized the formazan crystals formed by the dehydrogenases of metabolically active cells. Purple formazan absorbance was measured spectrophotometrically at 570 nm.

[2] = tested on: human microvascular endothelial cell line HMEC1; experiment: MTT cytotoxicity, normal endothelial cells HMEC1; type: cell-based; details: for IC50: HMEC1 normal endothelial cells, 48 h incubation, read-out: Cytotoxic effect, IC50; for IC50 for HMEC-1 higher than for cancer cells (selectivity): HMEC-1 vs cancer cells
Procedure: as §1, §2

[3] = tested on: HT29; experiment: MTT cytotoxicity, HT29; type: cell-based, human; details: read-out: Cytotoxic effect, IC50
Procedure: as §1, §2

[4] = tested on: NALM6; experiment: MTT cytotoxicity, NALM6; type: cell-based, human; details: read-out: Cytotoxic effect, IC50
Procedure: as §1, §2

[5] = tested on: Colo205; experiment: MTT cytotoxicity, Colo205; type: cell-based, human; details: read-out: Cytotoxic effect, IC50
Procedure: as §1, §2

[6] = tested on: HL60; experiment: MTT cytotoxicity, HL60; type: cell-based, human; details: read-out: Cytotoxic effect, IC50
Procedure: as §1, §2

[7] = tested on: LoVo; experiment: MTT cytotoxicity, LoVo; type: cell-based, human; details: 48 h incubation, read-out: Cytotoxic effect, IC50
Procedure: as §1, §2

[8] = tested on: A549; experiment: MTT cytotoxicity, A549; type: cell-based, human; details: 48 h incubation, read-out: Cytotoxic effect, IC50
Procedure: as §1, §2

[9] = tested on: WM115; experiment: MTT cytotoxicity, WM115; type: cell-based, human; details: read-out: Cytotoxic effect, IC50
Procedure: as §1, §2

[10] = tested on: Hela; experiment: MTT cytotoxicity, Hela; type: cell-based, human; details: 48 h incubation, read-out: Cytotoxic effect, IC50
Procedure: as §1, §2

[11] = tested on: Hep 3b; experiment: MTT cytotoxicity, Hep 3b; type: cell-based, human; details: 48 h incubation, read-out: Cytotoxic effect, IC50
Procedure: as §1, §2

[12] = tested on: MCF7; experiment: MTT cytotoxicity, MCF7; type: cell-based, human; details: 48 h incubation, read-out: Cytotoxic effect, IC50
Procedure: as §1, §2

[13] = tested on: SW620; experiment: MTT cytotoxicity, SW620; type: cell-based, human; details: read-out: Cytotoxic effect, IC50
Procedure: as §1, §2

[14] = tested on: HCC38; experiment: MTT cytotoxicity, HCC38; type: cell-based, human; details: 48 h incubation, read-out: Cytotoxic effect, IC50
Procedure: as §1, §2

[15] = tested on: Ishikawa; experiment: MTT cytotoxicity, Ishikawa; type: cell-based, human; details: 48 h incubation, read-out: Cytotoxic effect, IC50
Procedure: as §1, §2

[16] = tested on: Caco2; experiment: MTT cytotoxicity, Caco2; type: cell-based, human; details: read-out: Cytotoxic effect, IC50
Procedure: as §1, §2

[17] = Lipophilicity by RP-TLC; type: physicochemical; design: key: RM = log(1/Rf − 1), Rf = a/b; details: eluent AcCN: H2O at 30–70% v/v, 22 °C
Procedure: All the experimental solutions of standard substances (0.1 mg/mL) were prepared by dissolving ligands (1a–1d) or ruthenium complexes (2a/3a–2d/3d) in ethanol. Commercially-available octadecyl-modified silica aluminum sheets (20 × 20 cm) were cut into 5 × 10 cm plates. The plates were manually spotted with 1.0 μL of freshly prepared solutions using automatic pipets, 5 mm from each edge. The chromatograms for all compounds (1a/2a/3a–1d/2d/3d) were developed using a horizontal developing chamber and the solvent migration distance was about 4.5 cm. The plates were visually inspected under UV light at 254 nm. Each zone was clearly marked and its distance was manually measured. The RP-TLC analyses of lipophilicity were performed at ambient temperature (22 °C). In this experiment, all measurements were performed in triplicate and the obtained results were used in further calculations. The acetonitrile and water mixtures for ligands 1a–1d and arene–ruthenium(II) complexes 2a/3a–2d/3d were used as mobile phases, with […] content increasing in the range of 30–70% v/v, at 5% intervals. Values of the chromatographic retention coefficient Rf (as shown Formula (1)) and RM (as shown Formula (2)), based on received chromatograms, were calculated and converted as follows:(1) Rf=a/b (2) RM=log1/Rf−1

SMILES	IC50 [1] [µM]	IC50 [2] [µM]	IC50 for HMEC-1 higher than for cancer cells (selectivity) [2]	IC50 ([3]; 48 h incubation) [µM]	IC50 ([4]; 48 h incubation) [µM]	IC50 ([5]; 48 h incubation) [µM]	IC50 ([6]; 48 h incubation) [µM]	IC50 [7] [µM]	IC50 [8] [µM]	IC50 ([9]; 48 h incubation) [µM]	IC50 [10] [µM]	IC50 [11] [µM]	IC50 [12] [µM]	IC50 ([13]; 48 h incubation) [µM]	IC50 [14] [µM]	IC50 [15] [µM]	IC50 ([16]; 48 h incubation) [µM]	Lipophilicity, RM [17]	also measured
Cc1cc(C)n(C(N)=S)n1.Cc1ccc(C(C)C)cc1.F[P-](F)(F)(F)(F)F.[Cl-].[Ru+2] [3a]	77.2 ± 4.4	> 200	3–5 times	123 ± 3.9	46.1 ± 5.1	59.6 ± 3.4	79.7 ± 7.2	127 ± 3.7	> 200	64.1 ± 5.1	98.7 ± 7.4	55.3 ± 2.6	> 200	63.9 ± 2.7	> 200	> 200	107 ± 8.4	2.55	–
Cc1cc(O)n(C(N)=S)n1.Cc1ccc(C(C)C)cc1.F[P-](F)(F)(F)(F)F.[Cl-].[Ru+2] [3d]	128 ± 2.1	–	–	185.2 ± 1.8	> 200	> 200	> 200	110 ± 6.9	152 ± 2.8	> 200	> 200	> 200	> 200	> 200	188 ± 6.4	> 200	162 ± 6.1	2.39	–
Cc1cc(C)n(C(N)=S)n1 [1a]	–	–	–	–	–	–	–	–	–	–	–	–	–	–	–	–	–	2.32	IC50 ([1]; Homo sapiens, HEC-1-A): 111 ± 9.6 µM; IC50 ([3]; Homo sapiens, HT-29, 48 h incubation): > 200 µM; IC50 ([4]; Homo sapiens, NALM-6, 48 h incubation): > 200 µM; IC50 ([5]; Homo sapiens, COLO 205, 48 h incubation): > 200 µM; IC50 ([6]; Homo sapiens, HL-60, 48 h incubation): > 200 µM; IC50 ([7]; Homo sapiens): > 200 µM; IC50 ([8]; Homo sapiens): > 200 µM; IC50 ([9]; Homo sapiens, WM-115, 48 h incubation): > 200 µM; IC50 ([10]; Homo sapiens): > 200 µM; IC50 ([11]; Homo sapiens, Hep3B): > 200 µM; IC50 ([12]; Homo sapiens): > 200 µM; IC50 ([13]; Homo sapiens, SW-620, 48 h incubation): > 200 µM; IC50 ([14]; Homo sapiens): > 200 µM; IC50 ([15]; Homo sapiens): 124 ± 4.8 µM; IC50 ([16]; Homo sapiens, Caco-2, 48 h incubation): > 200 µM
Cc1cc(C)n(C(N)=S)n1.Cc1ccc(C(C)C)cc1.[Cl-].[Cl][Ru+] [2a]	62.3 ± 0.9	156 ± 4.9	3–5 times	111 ± 4.9	51.6 ± 5.7	110 ± 6.7	88.9 ± 6.1	> 200	121 ± 3.6	60.2 ± 6.3	> 200	> 200	> 200	118 ± 6.1	84.4 ± 1.1	90.7 ± 3.7	> 200	2.40	–
CCc1cc(CC)n(C(N)=S)n1.Cc1ccc(C(C)C)cc1.[Cl-].[Cl][Ru+] [2b]	36.4 ± 1.7	125 ± 2.1	3–5 times	107 ± 5.9	40 ± 5.6	115 ± 4.1	80.8 ± 3.9	59.7 ± 3.2	> 200	54.9 ± 5.9	164 ± 8.5	> 200	82.7 ± 3	107 ± 3.4	63.7 ± 4.4	51.4 ± 1.9	> 200	2.59	–
